Measured values: patent publication US20110130390A1, “Use of COX-2 Inhibitors for the Treatment of Schizophrenia, Delusional Disorders, Affective Disorders, Autism or Tic Disorders” (priority 2001, published 2011)

Experiments:
[1] = format: in vivo, human; details: FIG. 4
depressed patients [2] = assay: Drop-outs and side-effects in the celecoxib add-on to reboxetine trial; details: celecoxib 400 mg/day add-on to reboxetine, n = 20
depressed patients [3] = assay: Hamilton-Depression scale, 17-item version (HamD), celecoxib add-on to reboxetine trial; format: in vivo, human; details: 400 mg/day add-on to reboxetine, 6 weeks; ANOVA, Greenhouse-Geisser-corrected F=3.220; df 2.434; p=0.035; FIG. 10
Description: The psychopathology of the patients was assessed by raters, who had undergone a training program, using the Hamilton-Depression scale, 17-item version (HamD), 24 Assessment of psychopathology and other examinations were performed at weekly intervals.
For statistics, analysis of variance was used for the HamD scale. The degrees of freedom for the within-subjects comparisons were corrected for deviance from sphericity (Greenhouse-Geisser). Post-hoc t tests were used for the weekly comparison of HamD scores. An intent to treat analysis was performed using the “last observation carried forward” (LOCF) procedure.

DBA/2Ola mice = assay: Forced swim test; format: in vivo
Description: Various behavioral test paradigms have been developed for evaluating the antidepressant properties of novel drugs in animals. One of the most reliable and specific paradigm is the forced swim test which has been successfully used to determine the effectiveness of antidepressants, evaluate new pharmaceutical compounds and validate animal models of depression (Porsolt et al. (1977) Arch. Int. Pharmacodym. 229:327-336; Porsolt (2000) Rev. Neurosci. 11:53-58; Rénńric et al. (2002)Behav. Brain Res. 136:521-532; Page et al. (2003) Psychopharmacology 165:194-201; Kelliher et al. (2003) Psychoneuroendocrinology 28:332-347). The test consists of placing a mouse for a period of 5 minutes into a glass cylinder containing a water depth of at least 15 cm. Under such circumstances, a mouse cannot touch the bottom of the cylinder and is thus forced to swim. Time, latency and frequency of struggling/swimming versus floating are scored as behavioral parameters. Floating (i.e. movements made only for keeping balance and breath) can be interpreted as a depression-like behavior that reflects either a failure of persistent escape-directed behavior (i.e. behavioral despair) or the development of passive behavior that disengages the animal from active forms of coping with stress stimuli. By contrast, increased struggling (i.e. vigorous attempts to escape) and swimming indicates active coping behavior and can be interpreted as an opposite to depression-like behavior.
The antidepressant activity of rofecoxib was assessed in animals according to the forced swim test. Briefly, rofecoxib was given orally by gavage to mice either in a single acute administration of 10 mg or in a repetitive chronic administration of 4 mg per day (2 mg at 9:00 in the morning, 2 mg at 18:00 in the evening) for 28 days. Control animals received a negative control consisting of water only. The forced swim test was performed 4 hour after the last administration of rofecoxib. […] All observed results were confirmed statistically using the one-way ANOVA test.
(§1) The antidepressant activity of valdecoxib was assessed in DBA/2Ola mice according to the forced swim test. Briefly, chronic administration of valdecoxib was performed by oral gavage for 28 days at a concentration of 4 mg per day (2 mg at 9:00 in the morning, 2 mg at 18:00 in the evening) and 20 mg per day (10 mg at 9:00 in the morning, 10 mg at 18:00 in the evening). Control animals received a placebo consisting of water only. The behavior of individual animals was assessed using the forced swim test 24 hours after the last administration of valdecoxib. A pre-exposure of 5 minutes to the test was done 4 hours after the last administration of valdecoxib. All observed results were confirmed statistically using the one-way ANOVA test.
as §1, with “etoricoxib” for “valdecoxib”, “DBA/201a” for “DBA/2Ola”, “etoricoxib” for “chronic administration of valdecoxib”, “chronically administered to mice” for “performed”, “etoricoxib.” for “valdecoxib.”
The antidepressant activity of the COX-2 inhibitor Cimicoxib was assessed in DBA/2Ola mice using the forced swim test. Briefly, chronic administration of cimicoxib was performed by oral gavage to mice for 28 days at a concentration of 2 or 10 mg per kg bodyweight per day (1 or 5 mg at 9:00 in the morning, 1 or 5 mg at 18:00 in the evening). Control animals received a placebo consisting of water only. […]

[4] = chronic oral gavage 28 days, 2 or 10 mg per kg bodyweight per day, test 4 hours after the last administration, FIG. 9
[5] = chronic oral gavage 28 days, 4 mg per day and 20 mg per day, test 24 hours after the last administration
[6] = chronic oral 4 mg per day for 28 days, test 4 hour after the last administration, FIG. 6
[7] = single acute oral administration of 10 mg, test 4 hour after administration, FIG. 6

Description for schizophrenic patients: The psychopathology of the patients was assessed using the positive and negative syndrome scale (PANSS) (Kay et al., Schizophr. Bull. 1987, 13: 261-276). […] The statistics were performed according to the criterion of “last observation carried forward” (LOCF), i.e., the last PANSS scores of the patients who dropped out before the end of the study were carried forward to all subsequent observation days. For the comparison of the main efficacy parameter, the mean change in the PANSS between the two treatment groups, t-tests for independent samples were employed. […] For all other comparisons, two-tailed t-tests were used.

Cc1nc2n(c(=O)c1CCN1CCC(c3noc4cc(F)ccc34)CC1)CCCC2O (centres unmarked) [9-OH-risperidone]
differences in the plasma levels between risperidone-celecoxib and risperidone-placebo treatment [1]: without statistical significance

Cc1ccc(-c2cc(C(F)(F)F)nn2-c2ccc(S(N)(=O)=O)cc2)cc1 [celecoxib]
PANSS items lack of contact, emotional isolation, passive-apathic isolation, social withdrawal, depression, motor retardation (schizophrenic patients; analysis of items discriminating good celecoxib-responders from the placebo group): therapeutic effects | PANSS items subsumed under the label agitation (schizophrenic patients; factor analysis, not seen with placebo): good therapeutic response | cardiovascular events or side-effects, clinically and by ECG surveillance (depressed patients [2]): no cardiovascular events or side-effects were observed | patients excluded or refusing further treatment due to a lack of therapeutic efficacy (depressed patients [2]): Five | comparison of HamD scores during therapy with celecoxib or placebo (depressed patients [3]): advantage of celecoxib-group

COc1ccc(-c2c(Cl)ncn2-c2ccc(S(N)(=O)=O)cc2)cc1F [cimicoxib]
floating time (DBA/2Ola mice; [4]): decrease | struggling or swimming times (DBA/2Ola mice; [4]): statistically significant increase

Cc1nc2n(c(=O)c1CCN1CCC(c3noc4cc(F)ccc34)CC1)CCCC2 [risperidone]
differences in the plasma levels between risperidone-celecoxib and risperidone-placebo treatment [1]: without statistical significance

Cc1onc(-c2ccccc2)c1-c1ccc(S(N)(=O)=O)cc1 [valdecoxib]
floating time (DBA/2Ola mice; [5]): decreasing | struggling or swimming times (DBA/2Ola mice; [5]): statistically increased

etoricoxib
floating time (DBA/2Ola mice; [5]): decreasing | struggling or swimming times (DBA/2Ola mice; [5]): statistically increased or showed a tendency to increase

rofecoxib
floating time (DBA/2Ola mice; [6]): decreasing | struggling or swimming times (DBA/2Ola mice; [6]): statistically increased | floating time (DBA/2Ola mice; [7]): decreasing | struggling or swimming times (DBA/2Ola mice; [7]): statistically increased
